Values of other authors in patent US20170022147A1, “FUMARATE COMPOUNDS, PHARMACEUTICAL COMPOSITIONS THEREOF, AND METHODS OF USE” (priority 2015, published 2017).

- aqueous solubility: poor
Compound: COC(=O)/C=C/C(=O)OC [DMF, dimethylfumarate]
